{"source": "patent US10760110B2", "about": "“Antibiotic testing and screening system” (priority 2017, dated 2020)", "key": {"[1]": {"tested_on": "clinical K. pneumoniae isolate producing the carbapenemase OXA-48", "settings": "previous study; cited from earlier work"}, "[2]": {"tested_on": "K. pneumoniae NVT1001 harbouring the pACYC177 plasmid with blaOXA-48", "experiment": "Broth microdilution MIC (CLSI)", "format": "cell-based", "settings": "Klebsiella pneumoniae; broth microdilution test; NVT1001 with pACYC177 blaOXA-48", "protocol": "The MICs of antibiotics were determined using the Etest (Biodisk AB, Sweden) according to the manufacturer's instructions. The MICs from the Etest, which fall between standard two-fold dilutions, were rounded up to the next highest two-fold value. The MICs of ceftazidime and cefotaxime against K. pneumoniae NVT1001 harbouring the pACYC177 plasmid with blaOXA-48 were further determined using a broth microdilution test according to the recommendations of the CLSI,^25 and the results were interpreted according to the breakpoints established by the CLSI in 2017.^25 Meanwhile, due to the lack of CLSI breakpoints in 2016 and 2017, the results for cephalothin were interpreted according to the breakpoints established by the CLSI in 2015,^26 and the results for moxifloxacin were interpreted according to the breakpoints established by the EUCAST in 2017.^27"}, "[3]": {"tested_on": "A. baumannii KW1 strains with β-lactamase plasmids", "experiment": "Etest MIC of β-lactams, extended-spectrum β-lactamase, AmpC β-lactamase or carbapenemase (Table 18)", "format": "cell-based, Acinetobacter baumannii", "settings": "production of OXA-type carbapenemases", "outline": "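A. baumannii KW1 transformed by electroporation with pYMAb5 or pYMAb5Tc carrying PCR-cloned resistance genes plus flanking regions from clinical plasmids. MICs by Etest; values between two-fold dilutions rounded up to the next two-fold value.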"}, "[4]": {"tested_on": "K. pneumoniae NVT1001 harbouring the pACYC177 plasmid with blaOXA-48", "experiment": "Mouse peritonitis-sepsis infection model", "format": "in vivo, Klebsiella pneumoniae", "protocol": "Pathogen-free 6- to 8-week-old male BALB/c mice were obtained from the National Laboratory Animal Center (Taiwan) and maintained in the pathogen-free vivarium of the Laboratory Animal Center of National Defense Medical Center (Taiwan). K. pneumoniae NVT1001 harbouring the pACYC177 plasmid with blaOXA-48 was cultured overnight at 37° C. in BHI broth and then diluted (1:100) in fresh BHI broth. The culture was incubated until the mid-exponential growth phase, and the cells were then washed once, resuspended in 0.85% sterile saline, and adjusted to the desired concentrations according to the OD600 value. The concentrations were verified by plating the cells to determine viable counts. […] Meanwhile, antibiotic doses were prepared in 0.85% sterile saline. At 1 hour post-inoculation, antibiotic or 0.85% sterile saline alone was administered as a single subcutaneous injection with a volume of 0.3 mL per dose. The mice were then monitored daily for 7 days to measure survival."}, "[5]": {"tested_on": "clinical K. pneumoniae isolate producing the carbapenemase OXA-48", "settings": "previous study; cited from earlier work", "remark": "listed apart in the source"}}, "data": [{"molecule": "CC(C)(O/N=C(\\C(=O)N[C@@H]1C(=O)N2C(C(=O)[O-])=C(C[n+]3ccccc3)CS[C@H]12)c1csc(N)n1)C(=O)O", "note": "[Ceftazidime]", "values": [{"measurement": "MIC relative to that of cefotaxime", "setting": "[1]", "result": 4, "unit": "fold lower"}, {"measurement": "MIC", "setting": "[2]", "result": 0.5, "unit": "µg/mL"}, {"measurement": "effects on the MIC", "setting": "[3]", "result": "no increase effects"}, {"measurement": "in vivo efficacy (comparison)", "setting": "[4]; BALB/c mice", "result": "higher than that of cefotaxime"}, {"measurement": "ED50", "setting": "[4]; Klebsiella pneumoniae, sc, read-out: estimated ED50", "result": 30, "unit": "mg/kg"}, {"measurement": "ED50 (comparison)", "setting": "[5]", "result": "lower than that of cefotaxime"}]}]}
